Source: patent US9463193B2, “Individual 5-fluorouracile dose optimization in folfiri treatment” (INSTITUT DE CANCEROLOGIE DE L'OUEST, priority 2008, dated 2016)

Experiments:
[1] = human, in vivo
Description: A total of 90 patients were studied. All were treated for advanced colorectal cancer following treatment including irinotecan, fluorouracil and leucovorin (FOLFIRI Regimen)
After 200 mg/m^2 of intravenous leucovorin bolus and 400 mg/m^2 of intravenous push of 5-FU for 10 minutes, 5-FU was administered with an initial dose of 2,500 mg/m^2 every two weeks for 46-hours through a battery-operated pump, except in case of DPD significant mutation, in which case the initial dose of 5-FU in 46 hours continuous infusion was decreased by 50%.
Irinotecan was administered before 5-FU for 2 hours and the initial dose was 180 mg/m^2 without reduction for UGT 1A1 7/7 genotype group.
Treatment was continued until documented progression.
Statistical analysis used the chi2 test, linear regression analysis and the Kaplan-Meier method.

[2] = cited from earlier work
[3] = patients treated by 5-FU; cited from earlier work
[4] = subject with normal DPD enzymatic activity

O=c1[nH]cc(F)c(=O)[nH]1 [5-FU, 5-fluorouracile]
neutropenia grade 4, number observed [1]: 1 | time to plateau of plasmatic levels after beginning of continuous infusion ([2]; 5-FU continuous infusion): about 1 hour | half-life in blood ([2]; human, in vivo): very short | 5-FU clearance variation depending on the subject ([2]; interindividual): 6 to 10 factor | clearance multiplication from bolus administration to continued perfusion ([2]; perfusion during several hours or days): 10 factor | administered 5-FU available for the anabolic pathway [2, 4]: 20% | administered 5-FU eliminated by DPD in the catabolic pathway [2, 4]: about 80% | death due to polyvisceral toxicity [3]: 0.8 % of treated patients | severe grade 3-4 toxicity [3]: 20-25% | very early polyvisceral toxicity [3]: 5-8 % of patients
